Biological target: T1, integrin α4β7 (RPMI-8866 cells) binding with recombinant human VCAM-1 (Homo sapiens, UniProt P13612+P26010)
T1 construct: lymphoma cell strain RPMI-8866 of human B cells, known to express integrin α4β7; endogenous in cells; host or cells: RPMI-8866 (human B-cell lymphoma line)
T1 sequence (P13612 34-1032): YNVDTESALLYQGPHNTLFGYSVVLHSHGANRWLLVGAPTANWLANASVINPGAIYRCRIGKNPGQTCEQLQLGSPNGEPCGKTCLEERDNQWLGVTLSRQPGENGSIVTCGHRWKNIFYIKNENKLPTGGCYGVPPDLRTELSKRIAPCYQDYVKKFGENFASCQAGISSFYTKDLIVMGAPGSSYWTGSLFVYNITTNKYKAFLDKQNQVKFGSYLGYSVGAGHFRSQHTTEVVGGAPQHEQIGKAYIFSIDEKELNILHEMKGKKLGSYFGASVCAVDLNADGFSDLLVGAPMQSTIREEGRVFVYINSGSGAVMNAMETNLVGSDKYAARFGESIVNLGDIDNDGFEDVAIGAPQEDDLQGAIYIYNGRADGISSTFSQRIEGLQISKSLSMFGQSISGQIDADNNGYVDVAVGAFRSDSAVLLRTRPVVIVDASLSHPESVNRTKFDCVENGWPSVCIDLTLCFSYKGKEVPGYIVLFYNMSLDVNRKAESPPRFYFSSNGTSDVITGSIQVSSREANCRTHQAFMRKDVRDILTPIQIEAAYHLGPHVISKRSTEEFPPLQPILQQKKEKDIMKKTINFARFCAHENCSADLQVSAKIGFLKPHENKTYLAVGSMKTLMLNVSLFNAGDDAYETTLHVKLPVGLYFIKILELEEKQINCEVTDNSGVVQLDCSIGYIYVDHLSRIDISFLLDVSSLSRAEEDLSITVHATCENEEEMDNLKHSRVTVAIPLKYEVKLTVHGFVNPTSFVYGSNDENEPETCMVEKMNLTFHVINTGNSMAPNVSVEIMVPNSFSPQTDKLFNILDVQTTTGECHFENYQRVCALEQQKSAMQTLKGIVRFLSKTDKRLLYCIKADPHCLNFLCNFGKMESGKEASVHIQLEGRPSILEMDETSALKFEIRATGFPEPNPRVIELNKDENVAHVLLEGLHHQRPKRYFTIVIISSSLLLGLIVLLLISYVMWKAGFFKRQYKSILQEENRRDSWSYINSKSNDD
T1 sequence (P26010 20-798): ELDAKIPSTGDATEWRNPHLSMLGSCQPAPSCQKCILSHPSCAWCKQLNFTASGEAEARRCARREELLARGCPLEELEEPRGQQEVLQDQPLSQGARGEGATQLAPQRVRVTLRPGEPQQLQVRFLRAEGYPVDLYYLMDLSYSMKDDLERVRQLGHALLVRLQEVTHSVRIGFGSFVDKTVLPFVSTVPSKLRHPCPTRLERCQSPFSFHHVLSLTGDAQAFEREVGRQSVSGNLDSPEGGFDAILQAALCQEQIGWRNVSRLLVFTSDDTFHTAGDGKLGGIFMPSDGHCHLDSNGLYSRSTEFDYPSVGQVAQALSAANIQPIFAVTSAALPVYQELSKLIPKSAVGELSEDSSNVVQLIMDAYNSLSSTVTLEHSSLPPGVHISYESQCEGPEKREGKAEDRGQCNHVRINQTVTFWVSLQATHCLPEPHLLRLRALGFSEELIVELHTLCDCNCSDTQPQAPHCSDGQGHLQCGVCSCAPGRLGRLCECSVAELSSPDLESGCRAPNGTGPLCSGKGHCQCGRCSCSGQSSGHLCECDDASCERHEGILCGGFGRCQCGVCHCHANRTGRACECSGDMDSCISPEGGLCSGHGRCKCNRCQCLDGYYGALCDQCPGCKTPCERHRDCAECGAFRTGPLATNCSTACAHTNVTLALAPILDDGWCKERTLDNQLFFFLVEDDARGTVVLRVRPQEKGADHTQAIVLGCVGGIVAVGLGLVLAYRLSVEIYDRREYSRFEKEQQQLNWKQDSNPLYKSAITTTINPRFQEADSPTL
Assay: VCAM antagonistic activity (VCAM-1/α4β7 binding assay), RPMI-8866 cell adhesion
Format: cell-based
Conditions: recombinant human VCAM-1, 4 mM MnCl2, read-out: VCAM/α 4 β 7 antagonistic activity to integrin (IC50)
Method: (Test Example) VCAM Antagonistic Activity (VCAM-1/α4β7 Binding Assay):
The capacity of a test substance antagonistic to the binding of lymphoma cell strain RPMI-8866 of human B cells, known to express integrin α4β7, with VCAM-1 was determined.
100 μl/well of a solution (500 ng/ml ) of recombinant human VCAM-1 (R & D systems) diluted with buffer A (0.1 M NaHCO3, pwH 9.6) was added to a micro titer plate having 96 wells (Nunc Maxisorp). After the incubation at 4° C. overnight, unbound VCAM-1 was removed by once washing with PBS. After completion of the washing, a buffer (buffer B) obtained by diluting Block Ace® (Dainippon Pharmaceutical Co., Ltd.) with PBS to 1/4 concentration was added in an amount of 150 μl/well. After the incubation at room temperature for 1 hour, buffer B was removed and the plate was washed with PBS once.
RPMI-8866 cells were incubated in Dulbecco modified Eagle medium containing 10 μg/ml of Calcein-AM (Wako Pure Chemical Industries, Ltd.) (SIGMA, hereinafter referred to as “DMEM”) at 37° C. for 30 minutes to label them with fluorescence. The cells were again suspended in a binding buffer (DMEM containing 20 mM HEPES, 0.1% BSA) containing 4 mM of MnCl2.
50 μl of a test substance of various concentrations obtained by the dilution with the binding buffer was added to the plate. Immediately thereafter, 50 μl (final volume: 100 μl/well) of the fluorescent RPMI-8866 cells (4×10^6 cells/ml) were added thereto, and they were incubated at room temperature for 30 minutes. After the shaking on a plate shaker (IKA MTS-4) at 800 rpm for 30 seconds, the solution was immediately removed to remove the unbound cells. The fluorescence quantity of the bound cells remaining in the wells was determined with a fluorescent plate reader (Wallac 1420 ARVO multi-label counter) (filter excitation wave length: 485 nml, emission wave length: 535 nm). The fluorescent strength thus obtained is proportional to the number of RPMI-8866 cells bound to VCAM-1 and remaining on the plate. The binding rate of each test material in various concentrations was determined while the fluorescent strength of the test material-free well was determined to be 100%. The concentration IC50 for the 50% binding inhibition was calculated.

| SMILES | IC50 |
| --- | --- |
| O=C(O)[C@H](Cc1ccc(OCc2c(Cl)cccc2Cl)cc1)NC(=O)[C@H]1CC[C@H](C(=O)O)CC1 [Example 2, N-(Trans-4-carboxycyclohexane-1-carbonyl)-O-(2,6-dichlorobenzyl)-L-tyrosine] | ≤ 200 nM |
| O=C(O)[C@H](Cc1ccc(OCc2c(Cl)cccc2Cl)cc1)NC(=O)[C@H]1CC[C@H](C(=O)NNc2ccccc2)CC1 [Example 3, N-(Trans-4-phenylhydrazinocarbonylcyclohexane-1-carbonyl)-O-(2,6-dichlorobenzyl)-L-tyrosine] | ≤ 200 nM |
| O=C(O)[C@H](Cc1ccc(OCc2c(Cl)cccc2Cl)cc1)NC(=O)[C@H]1CC[C@H](C(=O)NNc2ccc(Br)cc2)CC1 [Example 4, N-[Trans-4-(4-bromophenylhydrazinocarbonyl)cyclohexane-1-carbonyl]-O-(2,6-dichlorobenzyl)-L-tyrosine] | 200 to 1000 nM |
| O=C(O)[C@H](Cc1ccc(OCc2c(Cl)cccc2Cl)cc1)NC(=O)[C@H]1CC[C@H](C(=O)NCc2ccccc2)CC1 [Example 6] | 1000 to 5000 nM |
| COc1ccc(NNC(=O)[C@H]2CC[C@H](C(=O)N[C@@H](Cc3ccc(OCc4c(Cl)cccc4Cl)cc3)C(=O)O)CC2)cc1 [Example 14] | ≤ 200 nM |
| Cc1ccc(NNC(=O)[C@H]2CC[C@H](C(=O)N[C@@H](Cc3ccc(OCc4c(Cl)cccc4Cl)cc3)C(=O)O)CC2)cc1 [Example 34] | ≤ 200 nM |
| O=C(O)[C@H](Cc1ccc(OCc2c(Cl)cccc2Cl)cc1)NC(=O)[C@H]1CC[C@H](C(=O)NNc2ccc(OC(F)(F)F)cc2)CC1 [Example 35] | ≤ 200 nM |
| COc1cccc(NNC(=O)[C@H]2CC[C@H](C(=O)N[C@@H](Cc3ccc(OCc4c(Cl)cccc4Cl)cc3)C(=O)O)CC2)c1 [Example 44] | ≤ 200 nM |
| O=C(Nc1ccc(C[C@H](NC(=O)[C@H]2CC[C@H](C(=O)O)CC2)C(=O)O)cc1)c1snnc1-c1ccccc1 [Example 45, N-(Trans-4-carboxycyclohexane-1-carbonyl)-4-{[(4-phenyl-1,2,3-thiadiazole-5-yl)carbonyl]amino}-L-phenylalanine] | ≤ 200 nM |
| COc1ccc(NNC(=O)[C@H]2CC[C@H](C(=O)N[C@@H](Cc3ccc(NC(=O)c4snnc4-c4ccccc4)cc3)C(=O)O)CC2)cc1 [Example 46, N-[Trans-4-(4-methoxyphenylhydrazinocarbonyl)cyclohexane-1-carbonyl]-4-{[(4-phenyl-1,2,3-thiadiazole-5-yl)carbonyl]amino}-L-phenyl-alanine] | ≤ 200 nM |
| COc1cccc(OC)c1-c1ccc(C[C@H](NC(=O)[C@H]2CC[C@H](C(=O)O)CC2)C(=O)O)cc1 [Example 50, N-(Trans-4-carboxycyclohexane-1-carbonyl)-4-(2,6-dimethoxyphenyl)-L-phenylalanine] | ≤ 200 nM |
| COc1ccc(NNC(=O)[C@H]2CC[C@H](C(=O)N[C@@H](Cc3ccc(-c4c(OC)cccc4OC)cc3)C(=O)O)CC2)cc1 [Example 51, N-[Trans-4-(4-methoxyphenylhydrazinocarbonyl)cyclohexane-1-carbonyl]-4-(2,6-dimethoxyphenyl)-L-phenylalanine] | ≤ 200 nM |

From US6610710B2, “Phenylalanine derivatives” (Ajinomoto Co., Inc., priority 1999, dated 2003)
